Experiments:
[1] = target: CDK2 (Homo sapiens, UniProt P24941); assay: CDK2 inhibition (IC50); format: biochemical
[2] = target: HDAC 1 (Homo sapiens, UniProt Q13547); assay: HDAC 1 inhibition assay with about 3 hours preincubation of enzyme and compound; format: biochemical; settings: read-out: HDAC 1 inhibitory activity (IC50 [μM]) (3-hour preincubation)
Procedure: The second assay is similar to the first assay described above, except that preincubation is carried out for about 3 hours after the enzyme is introduced. The test compound was suspended in, and titrated in DMSO. It was then spotted into a 384-well test plate. The enzyme, HDAC 1, was diluted in the same assay buffer as used in the previous assay and added to the pre-spotted compound. The enzyme/compound mix was incubated at room temperature for about 3 hours. The peptide substrate containing a fluorophore/quencher pair was diluted in the assay buffer and added to the compound/enzyme mix initiating the reaction. The reaction incubated at room temperature for 45 minutes. A concentrated developer solution was diluted in the assay buffer, and added to the reaction. The reaction was incubated at room temperature for about 15 minutes and relative fluorescence was read on an instrument reader.

Sequence of HDAC 1 (Q13547 whole entry, species assumed): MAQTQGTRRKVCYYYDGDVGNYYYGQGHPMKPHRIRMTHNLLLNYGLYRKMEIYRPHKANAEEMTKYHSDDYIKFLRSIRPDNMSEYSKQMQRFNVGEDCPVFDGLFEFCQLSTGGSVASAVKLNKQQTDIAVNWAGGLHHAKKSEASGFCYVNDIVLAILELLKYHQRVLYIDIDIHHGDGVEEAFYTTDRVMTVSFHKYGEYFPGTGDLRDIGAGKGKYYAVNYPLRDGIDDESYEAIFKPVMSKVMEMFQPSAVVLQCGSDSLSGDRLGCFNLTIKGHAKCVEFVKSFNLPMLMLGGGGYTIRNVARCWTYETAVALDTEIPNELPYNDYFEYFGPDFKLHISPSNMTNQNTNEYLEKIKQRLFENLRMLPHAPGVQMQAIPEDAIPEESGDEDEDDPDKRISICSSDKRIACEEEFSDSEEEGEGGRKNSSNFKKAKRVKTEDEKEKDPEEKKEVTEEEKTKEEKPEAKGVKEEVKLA

SMILES	IC50 [1]	IC50 [2]
Cc1cc(C(=O)Nc2cc(-c3ccc(F)cc3)ccc2N)sc1Nc1nccc(-c2cnc(C)n2C(C)C)n1 [Example 14, N-(4-amino-4′-fluorobiphenyl-3-yl)-5-(4-(1-isopropyl-2-methylimidazol-5-yl)pyrimidin-2-ylamino)-4-methylthiophene-2-carboxamide]	0.99 µM	0.028 µM
Cc1ncc(-c2cnnc(Nc3ccc(C(=O)Nc4cc(-c5cccs5)ccc4N)cc3)n2)n1C(C)C [Example 7, N-(2-amino-5-(thiophen-2-yl)phenyl)-4-(5-(1-isopropyl-2-methylimidazol-5-yl)-1,2,4-triazin-3-ylamino)benzamide]	> 40 µM	0.03 µM
Cc1ncc(-c2ccnc(Nc3ccc(C(=O)Nc4ccccc4N)cc3)n2)n1C(C)C [Example 1, N-(2-amino-phenyl)-4-[4-(1-isopropyl-2-methylimidazol-5-yl)-pyrimidin-2-ylamino]-benzamide]	0.03 µM	0.273 µM
Cc1ncc(-c2ccnc(Nc3ccc(C(=O)Nc4cc(F)ccc4N)cc3)n2)n1C(C)C [Example 4, N-(2-amino-5-fluoro-phenyl)-4-[4-(1-isopropyl-2-methylimidazol-5-yl)-pyrimidin-2-ylamino]-benzamide]	0.02 µM	0.809 µM
Cc1ncc(-c2ccnc(Nc3ncc(C(=O)Nc4cc(-c5cccs5)ccc4N)s3)n2)n1C(C)C [Example 16, N-(2-amino-5-(thiophen-2-yl)phenyl)-2-(4-(1-isopropyl-2-methylimidazol-5-yl)pyrimidin-2-ylamino)thiazole-5-carboxamide]	2.15 µM	0.032 µM
Cc1ncc(-c2ncnc(Nc3ccc(C(=O)Nc4ccccc4N)cc3)n2)n1C(C)C [Example 12, N-(2-aminophenyl)-4-(4-(1-isopropyl-2-methylimidazol-5-yl)-1,3,5-triazin-2ylamino)benzamide]	0.34 µM	0.153 µM
Cc1ncc(-c2ccnc(Nc3ccc(C(=O)Nc4cc(-c5cccs5)ccc4N)cc3)n2)n1C(C)C [Example 3, N-(2-amino-5-thiophen-2-yl-phenyl)-4-[4-(1-isopropyl-2-methylimidazol-5-yl)-pyrimidin-2-ylamino]-benzamide]	0.04 µM	0.019 µM
Cc1ncc(-c2nc(Nc3ccc(C(=O)Nc4cc(-c5cccs5)ccc4N)s3)ncc2F)n1C(C)C [Example 17, N-(2-amino-5-(thiophen-2-yl)phenyl)-5-(5-fluoro-4-(1-isopropyl-2-methylimidazol-5-yl)pyrimidin-2-ylamino)thiophene-2-carboxamide]	0.025 µM	0.037 µM
Cc1ncc(-c2ccnc(Nc3ccc(C(=O)NO)cc3)n2)n1C(C)C [Example 2, N-hydroxy-4-[4-(1-isopropyl-2-methylimidazol-5-yl)-pyrimidin-2-ylamino]-benzamide]	0.01 µM	0.241 µM
Cc1ncc(-c2cnnc(Nc3ccc(C(=O)Nc4ccccc4N)cc3)n2)n1C(C)C [Example 5, N-(2-aminophenyl)-4-(5-(1-isopropyl-2-methylimidazol-5-yl)-1,2,4-triazin-3-ylamino)benzamide]	> 40 µM	0.423 µM

Continued by falling IC50 [1], values first:

IC50 [1]	IC50 [2]	SMILES
2.1 µM	0.41 µM	Cc1ncc(-c2ccnc(Nc3ncc(C(=O)Nc4ccccc4N)s3)n2)n1C(C)C [Example 18, N-(2-aminophenyl)-2-(4-(1-isopropyl-2-methylimidazol-5-yl)pyrimidin-2-ylamino)thiazole-5-carboxamide]
1.04 µM	0.049 µM	Cc1ncc(-c2ccnc(Nc3ncc(C(=O)Nc4cc(-c5ccc(F)cc5)ccc4N)s3)n2)n1C(C)C [Example 15, N-(4-amino-4′-fluorobiphenyl-3-yl)-2-(4-(1-isopropyl-2-methylimidazol-5-yl)pyrimidin-2-ylamino)thiazole-5-carboxamide]
0.065 µM	0.054 µM	Cc1ncc(-c2ccnc(Nc3ccc(C(=O)Nc4cc(-c5ccc(F)cc5)ccc4N)s3)n2)n1C(C)C [Example 13, N-(4-amino-4′-fluorobiphenyl-3-yl)-5-(4-(1-isopropyl-2-methylimidazol-5-yl)pyrimidin-2-ylamino)thiophene-2-carboxamide]
0.027 µM	0.04 µM	Cc1ncc(-c2ccnc(Nc3ccc(C(=O)Nc4cc(-c5ccc(F)cc5)ccc4N)cc3)n2)n1C(C)C [Example 9, N-(4-amino-4′-fluorobiphenyl-3-yl)-4-(4-(1-isopropyl-2-methylimidazol-5-yl)pyrimidin-2-ylamino)benzamide]
0.026 µM	0.034 µM	Cc1ncc(-c2ccnc(Nc3ccc(C(=O)Nc4cc(-c5cccs5)ccc4N)s3)n2)n1C(C)C [Example 10, N-(2-amino-5-(thiophen-2-yl)phenyl)-5-(4-(1-isopropyl-2-methylimidazol-5-yl)pyrimidin-2-ylamino)thiophene-2-carboxamide]
0.012 µM	4.37 µM	Cc1ncc(-c2ccnc(Nc3ccc(C(=O)Nc4ccccc4N)s3)n2)n1C(C)C [Example 11, N-(2-aminophenyl)-5-(4-(1-isopropyl-2-methylimidazol-5-yl)pyrimidin-2-ylamino)thiophene-2-carboxamide]
0.01 µM	> 10 µM	Cc1ncc(-c2ccnc(Nc3ccc(C(=O)Nc4cc(C(F)(F)F)ccc4N)cc3)n2)n1C(C)C [Example 6, N-(2-amino-5-(trifluoromethyl)phenyl)-4-(4-(1-isopropyl-2-methylimidazol-5-yl)pyrimidin-2-ylamino)benzamide]
0.002 µM	0.656 µM	Cc1ncc(-c2ccnc(Nc3ccc(C(=O)NO)s3)n2)n1C(C)C [Example 8, N-hydroxy-5-(4-(1-isopropyl-2-methylimidazol-5-yl)pyrimidin-2-ylamino)thiophene-2-carboxamide]

— patent publication US8134000B2, “Imidazolyl pyrimidine inhibitor compounds” (Gilead Sciences, Inc., priority 2008, dated 2012)
